Several values for one entry are separate records, joined by “and”; a condition that tells them apart may be missing. Identical values can stand only once. Like-named read-outs stand apart in the source and are kept apart here.
Experiment: Preliminary pharmacokinetics in SD rats
Type: in vivo
Conditions: for AUC(0-inf) / AUC(0-t) / clearance / half-life / Cmax / Vd / concentration at 5 min / concentration at 10 min / concentration at 0.25 h / concentration at 0.5 h / concentration at 0.75 h / concentration at 1 h / concentration at 2 h / concentration at 4 h / concentration at 6 h / concentration at 8 h / concentration at 12 h / concentration at 24 h / MRT inf / k el: male, SD, rat, plasma; for Cmax: read-out: Maximum concentration (C max)
Experimental: We administered BH by gavage and intravenous administration to SD rats (male, 200–220 g, n = 6) after they had fasted for 12 h. For oral gavage, the BH was dissolved in DMSO/0.5% CMC-Na (5/95, v/v/), and for intravenous administration, it was dissolved in DMSO/0.9% NaCl (5/95, v/v/), and then the blood samples were collected at intervals to determine the pharmacokinetic (PK) profiles of SD rats.

With `CC1=CC(=O)[C@@H](O)[C@]2(C)[C@H]3[C@@H](O)[C@H](O)[C@@]4(CO)OC[C@@]35[C@@H](C[C@@H]12)OC(=O)[C@H](O)[C@]54O` [BH, Bruceine H] the “Concentration of BH in rat plasma, individual rats No1-No3” value (shortened to “Concentration of BH in rat plasma”) (i.v. 2 mg/kg, 5 min, 2 mg/kg) was 484.6 ng/mL and 469.6 ng/mL, the “Concentration of BH in rat plasma” value (i.v. 2 mg/kg, 10 min, 2 mg/kg) was 455.4 ng/mL and 450.6 ng/mL and the “Concentration of BH in rat plasma” value (i.v. 2 mg/kg, 0.25 h, 2 mg/kg) was 398.5 ng/mL and 384.2 ng/mL. The “Concentration of BH in rat plasma” value (i.v. 2 mg/kg, 0.5 h, 2 mg/kg) was 245.3 ng/mL and 234.1 ng/mL, the “Concentration of BH in rat plasma” value (i.v. 2 mg/kg, 0.75 h, 2 mg/kg) was 177.7 ng/mL and 180.4 ng/mL and the “Concentration of BH in rat plasma” value (i.v. 2 mg/kg, 1 h, 2 mg/kg) was 135.4 ng/mL and 119.6 ng/mL. The “Concentration of BH in rat plasma” value (i.v. 2 mg/kg, 2 h, 2 mg/kg) was 95.3 ng/mL and 98.5 ng/mL, the “Concentration of BH in rat plasma” value (i.v. 2 mg/kg, 4 h, 2 mg/kg) was 55.4 ng/mL and 51.2 ng/mL and the “Concentration of BH in rat plasma” value (i.v. 2 mg/kg, 6 h, 2 mg/kg) was 40.4 ng/mL and 42.1 ng/mL. The “Concentration of BH in rat plasma” value (i.v. 2 mg/kg, 8 h, 2 mg/kg) was 18.8 ng/mL and 25.4 ng/mL, the “Concentration of BH in rat plasma” value (i.v. 2 mg/kg, 12 h, 2 mg/kg) was 12.3 ng/mL and 21.3 ng/mL and the “Concentration of BH in rat plasma” value (i.v. 2 mg/kg, 24 h, 2 mg/kg) was 6.3 ng/mL and 10.2 ng/mL. For the same compound, the AUC(0-inf) (iv, 2 mg/kg, SD rats, 2 mg/kg iv, read-out: AUC0–inf) was 1050 ng·h/mL, the AUC(0-t) (iv, 2 mg/kg, SD rats, 2 mg/kg iv, read-out: AUC0–last) was 944 ng·h/mL and the clearance (iv, 2 mg/kg, SD rats, 2 mg/kg iv, read-out: Clearance (CL) (converted)) was 31.9 mL/min/kg. The half-life (iv, 2 mg/kg, SD rats, 2 mg/kg iv, read-out: Half-life (T 1/2) (converted)) was 9.69 h, the Cmax (iv, 2 mg/kg, SD rats, 2 mg/kg iv) was 477 ng/mL and the Vd (iv, 2 mg/kg, SD rats, 2 mg/kg iv, read-out: Volume of distribution (V ss)) was 26.5 L/kg. For the same compound, the concentration at 5 min (iv, 2 mg/kg, i.v. 2 mg/kg, 5 min, read-out: Concentration of BH in rat plasma, Mean) was 477 ng/mL, the concentration at 5 min (iv, 2 mg/kg, i.v. 2 mg/kg, 5 min, read-out: Concentration of BH in rat plasma, individual rats No1-No3) was 478 ng/mL and the concentration at 10 min (iv, 2 mg/kg, i.v. 2 mg/kg, 10 min, read-out: Concentration of BH in rat plasma, Mean) was 442 ng/mL. For the same compound, the concentration at 10 min (iv, 2 mg/kg, i.v. 2 mg/kg, 10 min, read-out: Concentration of BH in rat plasma, individual rats No1-No3) was 420 ng/mL, the concentration at 0.25 h (iv, 2 mg/kg, i.v. 2 mg/kg, 0.25 h, read-out: Concentration of BH in rat plasma, Mean) was 384 ng/mL and the concentration at 0.25 h (iv, 2 mg/kg, i.v. 2 mg/kg, 0.25 h, read-out: Concentration of BH in rat plasma, individual rats No1-No3) was 371 ng/mL. For the same compound, the concentration at 0.5 h (iv, 2 mg/kg, i.v. 2 mg/kg, 0.5 h, read-out: Concentration of BH in rat plasma, Mean) was 236 ng/mL, the concentration at 0.5 h (iv, 2 mg/kg, i.v. 2 mg/kg, 0.5 h, read-out: Concentration of BH in rat plasma, individual rats No1-No3) was 228 ng/mL and the concentration at 0.75 h (iv, 2 mg/kg, i.v. 2 mg/kg, 0.75 h, read-out: Concentration of BH in rat plasma, Mean) was 177 ng/mL. The concentration at 0.75 h (iv, 2 mg/kg, i.v. 2 mg/kg, 0.75 h, read-out: Concentration of BH in rat plasma, individual rats No1-No3) was 172 ng/mL, the concentration at 1 h (iv, 2 mg/kg, i.v. 2 mg/kg, 1 h, read-out: Concentration of BH in rat plasma, Mean) was 127 ng/mL and the concentration at 1 h (iv, 2 mg/kg, i.v. 2 mg/kg, 1 h, read-out: Concentration of BH in rat plasma, individual rats No1-No3) was 125 ng/mL. The concentration at 2 h (iv, 2 mg/kg, i.v. 2 mg/kg, 2 h, read-out: Concentration of BH in rat plasma, Mean) was 99.1 ng/mL, the concentration at 2 h (iv, 2 mg/kg, i.v. 2 mg/kg, 2 h, read-out: Concentration of BH in rat plasma, individual rats No1-No3) was 104 ng/mL and the concentration at 4 h (iv, 2 mg/kg, i.v. 2 mg/kg, 4 h, read-out: Concentration of BH in rat plasma, Mean) was 54.9 ng/mL. The concentration at 4 h (iv, 2 mg/kg, i.v. 2 mg/kg, 4 h, read-out: Concentration of BH in rat plasma, individual rats No1-No3) was 58 ng/mL, the concentration at 6 h (iv, 2 mg/kg, i.v. 2 mg/kg, 6 h, read-out: Concentration of BH in rat plasma, Mean) was 40 ng/mL and the concentration at 6 h (iv, 2 mg/kg, i.v. 2 mg/kg, 6 h, read-out: Concentration of BH in rat plasma, individual rats No1-No3) was 37.6 ng/mL. For the same compound, the concentration at 8 h (iv, 2 mg/kg, i.v. 2 mg/kg, 8 h, read-out: Concentration of BH in rat plasma, Mean) was 24.5 ng/mL, the concentration at 8 h (iv, 2 mg/kg, i.v. 2 mg/kg, 8 h, read-out: Concentration of BH in rat plasma, individual rats No1-No3) was 29.2 ng/mL and the concentration at 12 h (iv, 2 mg/kg, i.v. 2 mg/kg, 12 h, read-out: Concentration of BH in rat plasma, Mean) was 17.9 ng/mL. For the same compound, the concentration at 12 h (iv, 2 mg/kg, i.v. 2 mg/kg, 12 h, read-out: Concentration of BH in rat plasma, individual rats No1-No3) was 20 ng/mL, the concentration at 24 h (iv, 2 mg/kg, i.v. 2 mg/kg, 24 h, read-out: Concentration of BH in rat plasma, Mean) was 7.37 ng/mL and the concentration at 24 h (iv, 2 mg/kg, i.v. 2 mg/kg, 24 h, read-out: Concentration of BH in rat plasma, individual rats No1-No3) was 5.6 ng/mL. It also gave an AUC(0-t) (iv, 2 mg/kg, i.v., read-out: AUC (0-t), Mean) of 944 ng·h/mL, an AUC(0-t) (iv, 2 mg/kg, i.v., read-out: AUC (0-t), individual rats No1-No3) of 965 ng·h/mL and an AUC(0-inf) (iv, 2 mg/kg, i.v., read-out: AUC (0-∞), individual rats No1-No3) of 1020 ng·h/mL. The clearance (iv, 2 mg/kg, i.v., read-out: CLz, Mean (converted)) was 31.9 mL/min/kg, the clearance (iv, 2 mg/kg, i.v., read-out: CLz, individual rats No1-No3 (converted)) was 32.7 mL/min/kg and the concentration at 24 h (iv, 2 mg/kg, i.v., read-out: C_last, Mean) was 7.35 ng/mL. For the same compound, the concentration at 24 h (iv, 2 mg/kg, i.v., read-out: C_last, individual rats No1-No3) was 5.6 ng/mL, the MRT inf (iv, 2 mg/kg, i.v., read-out: MRT (0-∞), Mean) was 8.44 h and the MRT inf (iv, 2 mg/kg, i.v., read-out: MRT (0-∞), individual rats No1-No3) was 6.47 h. For the same compound, the Vd (iv, 2 mg/kg, i.v., read-out: Vz, Mean) was 26.5 L/kg, the Vd (iv, 2 mg/kg, i.v., read-out: Vz, individual rats No1-No3) was 18.6 L/kg and the half-life (iv, 2 mg/kg, i.v., read-out: t1/2z, Mean (converted)) was 9.69 h. For the same compound, the half-life (iv, 2 mg/kg, i.v., read-out: t1/2z, individual rats No1-No3 (converted)) was 6.55 h, the k el (iv, 2 mg/kg, i.v., read-out: λz, Mean (converted)) was 2.11e-05 s⁻¹ and the k el (iv, 2 mg/kg, i.v., read-out: λz, individual rats No1-No3 (converted)) was 2.94e-05 s⁻¹. The AUC(0-inf) (po, 10 mg/kg, SD rats, 10 mg/kg po, read-out: AUC0–inf) was 976 ng·h/mL, the AUC(0-t) (po, 10 mg/kg, SD rats, 10 mg/kg po, read-out: AUC0–last) was 961 ng·h/mL and the half-life (po, 10 mg/kg, SD rats, 10 mg/kg po, read-out: Half-life (T 1/2) (converted)) was 3.35 h. The Cmax (po, 10 mg/kg, SD rats, 10 mg/kg po) was 147 ng/mL, the concentration at 0.25 h (po, 10 mg/kg, p.o. 10 mg/kg, 0.25 h, read-out: Concentration of BH in rat plasma, Mean) was 11.8 ng/mL and the concentration at 0.25 h (po, 10 mg/kg, p.o. 10 mg/kg, 0.25 h, read-out: Concentration of BH in rat plasma, individual rats No1-No3) was 13.6 ng/mL. It also gave a concentration at 0.5 h (po, 10 mg/kg, p.o. 10 mg/kg, 0.5 h, read-out: Concentration of BH in rat plasma, Mean) of 58.1 ng/mL, a concentration at 0.5 h (po, 10 mg/kg, p.o. 10 mg/kg, 0.5 h, read-out: Concentration of BH in rat plasma, individual rats No1-No3) of 68.4 ng/mL and a concentration at 0.75 h (po, 10 mg/kg, p.o. 10 mg/kg, 0.75 h, read-out: Concentration of BH in rat plasma, Mean) of 104 ng/mL. For the same compound, the concentration at 0.75 h (po, 10 mg/kg, p.o. 10 mg/kg, 0.75 h, read-out: Concentration of BH in rat plasma, individual rats No1-No3) was 111 ng/mL, the concentration at 1 h (po, 10 mg/kg, p.o. 10 mg/kg, 1 h, read-out: Concentration of BH in rat plasma, Mean) was 147 ng/mL and the concentration at 1 h (po, 10 mg/kg, p.o. 10 mg/kg, 1 h, read-out: Concentration of BH in rat plasma, individual rats No1-No3) was 154 ng/mL. The concentration at 2 h (po, 10 mg/kg, p.o. 10 mg/kg, 2 h, read-out: Concentration of BH in rat plasma, Mean) was 123 ng/mL, the concentration at 2 h (po, 10 mg/kg, p.o. 10 mg/kg, 2 h, read-out: Concentration of BH in rat plasma, individual rats No1-No3) was 130 ng/mL and the concentration at 4 h (po, 10 mg/kg, p.o. 10 mg/kg, 4 h, read-out: Concentration of BH in rat plasma, Mean) was 101 ng/mL. The concentration at 4 h (po, 10 mg/kg, p.o. 10 mg/kg, 4 h, read-out: Concentration of BH in rat plasma, individual rats No1-No3) was 115 ng/mL and the concentration at 6 h (po, 10 mg/kg, p.o. 10 mg/kg, 6 h, read-out: Concentration of BH in rat plasma, Mean) was 80.5 ng/mL.
